Values quoted from earlier work in patent publication US20130102635A1, “Methods for Treating Disorders Associated with Hyperlipidemia in a Mammal” (priority 2005, published 2013).
“Also recorded” adds a separate entry of the source. Where two headings read alike, the source gives them in different places.

Experiments:
[1] = animal model for homozygous FH, for example at 25 mg/day
[2] = clinical studies, 80 mg/day or greater

Row | Compound | reduction of plasma cholesterol levels [1] | adverse events (patients, 25 mg/day BMS-201038) | adverse events (clinical studies, implitapide 80 mg/day or greater) | adverse events (implitapide 80 mg/day and 160 mg/day) | therapeutic effectiveness [2]
1 | O=C(NC1CCN(CCCCC2(C(=O)NCC(F)(F)F)c3ccccc3-c3ccccc32)CC1)c1ccccc1-c1ccc(C(F)(F)F)cc1 [BMS-201038, N-(2,2,2-Trifluorethyl)-9-[4-[4-[[[4′-(trifluoromethyl)[1,1′biphenyl]-2-Yl]carbonyl]amino]-1-piperidinyl]butyl] 9H-fluorene-9-carboxamide] | effectively reduced plasma cholesterol levels in a dose dependent manner | gastrointestinal disturbances, abnormalities in liver function, and hepatic steatosis; also recorded: gastrointestinal disorders, abnormalities in liver function and/or hepatic steatosis |  |  | 
2 | Cc1cc(C)c2c3ccccc3n(Cc3ccc([C@@H](C(=O)N[C@H](CO)c4ccccc4)C4CCCC4)cc3)c2n1 [implitapide, (2S)-2-cyclopentyl-2-[4-[(2,4-dimethyl-9H-pyrido[2,3-b]indol-9-yl)methyl]phenyl]-N-[(1S)-2-hydroxy-1-phenylethyl]ethanamide] |  |  | gastrointestinal disturbances, abnormalities in liver function, and hepatic steatosis | gastrointestinal disorders, abnormalities in liver function and/or hepatic steatosis | therapeutically effective
